Target: T1, human D4.2 receptor (Homo sapiens, UniProt P21917, DEL265-296)
T1 sequence (P21917 with tags, fused parts or gaps DEL265-296): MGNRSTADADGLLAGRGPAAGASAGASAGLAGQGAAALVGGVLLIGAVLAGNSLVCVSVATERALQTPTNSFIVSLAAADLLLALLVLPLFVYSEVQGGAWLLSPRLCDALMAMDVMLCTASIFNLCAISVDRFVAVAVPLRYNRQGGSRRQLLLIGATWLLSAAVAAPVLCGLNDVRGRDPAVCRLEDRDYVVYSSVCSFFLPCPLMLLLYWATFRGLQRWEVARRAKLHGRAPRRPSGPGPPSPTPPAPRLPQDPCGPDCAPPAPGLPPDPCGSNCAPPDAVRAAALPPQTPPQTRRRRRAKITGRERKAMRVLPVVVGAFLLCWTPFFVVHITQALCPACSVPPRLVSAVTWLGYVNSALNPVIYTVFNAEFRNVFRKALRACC
Experiment: Dopamine D4 receptor binding experiment ([3H]-spiperone)
Settings: CHO cell membranes expressing human D4.2 receptor, [3H]-spiperone (0.5 nM), 27°C, 2 hours
Procedure: As a receptor preparation, Chinese hamster ovary (CHO) cell membranes where human D4.2 receptor was expressed were used.
As [^3H]-labeled ligand, [^3H]-spiperone was used.
Human D4.2 receptor binding test: CHO cell membranes where human D4.2 receptor was expressed, [^3H]-spiperone (0.5 nM) and a test drug were reacted at 27°C for 2 hours in 50 mM Tris-HCl buffer, pH 7.4 containing 5 mM EDTA, 1.5 mM calcium chloride, 5 mM potassium chloride and 120 mM sodium chloride.
After the reaction, the sample was filtered under suction through a glass filter (GF/B), and the radioactivity of the filter paper was determined in a liquid scintillation spectrometer.
The binding of [^3H]-spiperone in the presence of 10 µM haloperidol was assumed to be non-specific binding, and the difference between the total binding and the non-specific binding was assumed to be specific binding.

IC50 [nM]	Compound
55.9	Nc1nc(-c2ccc(F)cc2)c(C2CCN(CCCC(c3ccc(F)cc3)c3ccc(F)cc3)C2)s1 (racemic) [Compound B-19]
6.58	Nc1nc(-c2ccc(F)cc2)c(C2CCN(CCCC(=O)c3ccc(F)cc3)C2)s1 [Compound D-02, 2-amino-4-(4-fluorophenyl)-5-[1-[4-(4-fluorophenyl)-4-oxobutyl]pyrrolidin-3-yl]thiazole]
8.7	Nc1nc(-c2ccccc2)c(CCN2CCC(C(=O)c3ccc(F)cc3)CC2)s1 [Compound K-10]
4.98	Cc1nc(-c2ccc(Br)cc2)c(CCN2CCC(C(=O)c3ccc(F)cc3)CC2)s1 [Compound K-27]
13.9	Nc1nc(-c2ccc(F)cc2)c(C2CCN(CCCc3nsc4ccccc34)C2)s1 (centres unmarked) [Compound E-10]
11.8	Nc1nc(-c2ccc(F)cc2)c(C2CCN(CCCc3noc4cc(F)ccc34)C2)s1 (single isomer, unassigned) [Compound F-07]
38.5	COc1ccc(C(=O)C2CCN(CCc3sc(C)nc3-c3ccc(F)cc3)CC2)cc1 [Compound K-22]
11.5	Cc1nc(-c2ccc(F)cc2)c(CCN2CCC(C(=O)c3ccc(F)cc3F)CC2)s1 [Compound K-23]
4.13	Cc1nc(-c2ccc(F)cc2)c(C2CCN(CCCC(=O)c3ccc(F)cc3)C2)s1 (racemic) [Compound D-15]
7.22	Nc1nc(-c2ccc(F)cc2)c(C2CCN(CCCc3nsc4cc(F)ccc34)C2)s1 (centres unmarked) [Compound E-11, 2-amino-4-(4-fluorophenyl)-5-[1-[3-(6-fluoro-1,2-benzisothiazol-3-yl)propyl]pyrrolidin-3-yl]thiazole]
5.99	Cc1nc(-c2ccc(F)cc2)c(CCN2CCC(C(=O)c3ccccc3)CC2)s1 [Compound K-24]
8.7	Cc1nc(-c2ccc(F)cc2)c(CCN2CCC(C(=O)c3ccc(F)cc3)CC2)s1 [Compound K-19]
42.3	Nc1nc(-c2ccc(F)cc2)c(CCN2CCC(C(=O)c3ccccc3)CC2)s1 [Compound K-09]
20.1	C=C(c1ccc(F)cc1)C1CCN(CCc2sc(N)nc2-c2ccc(F)cc2)CC1 [Compound K-18]
10.5	Nc1nc(-c2ccc(F)cc2)c(C2CCN(CCCc3noc4cc(F)ccc34)C2)s1 (centres unmarked) [Compound E-02, 2-amino-4-(4-fluorophenyl)-5-[1-[3-(6-fluoro-1,2-benzisoxazol-3-yl)propyl]pyrrolidin-3-yl]thiazole]
35.1	Nc1nc(-c2ccc(F)cc2)c(CCN2CCC(C(=O)c3ccc(Br)cc3)CC2)s1 [Compound K-15]
2.15	Cc1nc(-c2ccccc2)c(CCN2CCC(C(=O)c3ccc(F)cc3)CC2)s1 [Compound K-30]
81.1	Nc1nc(-c2ccc(F)cc2)c(C2CCN(CCC=Cc3ccc(F)cc3)C2)s1 (centres unmarked) [Compound C-02]
61.4	Nc1nc(-c2ccc(F)cc2)c(C2CCN(CCCn3c(=O)ccc4cc(F)ccc43)C2)s1 (centres unmarked) [Compound H-03]
5.46	Cc1ccc(C(=O)C2CCN(CCc3sc(C)nc3-c3ccc(F)cc3)CC2)cc1 [Compound K-25]
29.2	Nc1nc(-c2ccc(F)cc2)c(C2CCN(CCC=C(c3ccc(F)cc3)c3ccc(F)cc3)C2)s1 (racemic) [Compound C-03]
29.2	Nc1nc(-c2ccc(F)cc2)c(CCN2CCC(C(=O)c3ccc(Cl)cc3)CC2)s1 [Compound K-08]
9.55	Cc1ccc(C(=O)C2CCN(CCc3sc(N)nc3-c3ccc(F)cc3)CC2)cc1 [Compound K-16]
46.4	Nc1nc(-c2ccc(F)cc2)c(CCN2CCC(Cc3ccccc3)CC2)s1 [Compound K-04]
4.53	Cc1nc(-c2ccc(Cl)cc2)c(CCN2CCC(C(=O)c3ccc(F)cc3)CC2)s1 [Compound K-26]

Same assay, conditions: inhibition of [3H]-spiperone binding, human D4.2 receptor

Compound	IC50 [nM]
O=C(c1ccc(F)cc1)C1CCN(CCc2scnc2-c2ccc(F)cc2)CC1 [Compound K-33]	2.36
O=C(c1ccccc1)C1CCN(CCc2scnc2-c2ccc(F)cc2)CC1 [Compound K-34]	20.1
COc1ccc(-c2nc(C)sc2CCN2CCC(C(=O)c3ccc(F)cc3)CC2)cc1Br [Compound K-31]	0.705
CNc1nc(-c2ccc(F)cc2)c(CCN2CCC(C(=O)c3ccc(F)cc3)CC2)s1 [Compound K-36]	3.43
C=C(c1ccc(F)cc1)C1CCN(CCc2sc(C)nc2-c2ccc(F)cc2)CC1 [Compound K-32]	12.6

Continued, values first:

IC50 [nM]	Compound
29.2	Cc1nc(-c2ccc(F)cc2)c(CCN2CCC(=Cc3ccc(Br)cc3)CC2)s1 [Compound L-25]
2.6	Cc1ccc(-c2nc(C)sc2CCN2CCC(=Cc3ccc(F)cc3)CC2)cc1 [Compound L-21]
3.43	Fc1ccc(-c2ncsc2CCN2CCC(=Cc3ccccc3)CC2)cc1 [Compound L-33]
2.6	Cc1nc(-c2ccc(F)cc2)c(CCN2CCC(=Cc3ccccc3)CC2)s1 [Compound L-30]
29.2	COc1ccc(C=C2CCN(CCc3sc(N)nc3-c3ccc(F)cc3)CC2)cc1 [Compound L-10]
3.76	Nc1nc(-c2ccc(F)cc2)c(CCN2CCC(=Cc3ccccc3)CC2)s1 [Compound L-14]
16.7	COc1ccc(C=C2CCN(CCc3sc(C)nc3-c3ccc(F)cc3)CC2)cc1 [Compound L-26]
2.85	Nc1nc(-c2ccc(F)cc2)c(CCN2CCC(=Cc3cccc(F)c3)CC2)s1 [Compound L-11]
3.13	Cc1nc(-c2ccccc2)c(CCN2CCC(=Cc3ccc(F)cc3)CC2)s1 [Compound L-23]
18.3	COc1ccc(-c2nc(N)sc2CCN2CCC(=Cc3ccc(F)cc3)CC2)cc1 [Compound L-05]
5.99	Cc1nc(-c2ccc(F)cc2)c(CCN2CCC(=Cc3ccccc3F)CC2)s1 [Compound L-28]
73.9	Nc1nc(-c2ccc(F)cc2)c(CCN2CCC(=Cc3ccc(Cl)cc3)CC2)s1 [Compound L-08]
10.5	Cc1nc(-c2ccc(F)cc2)c(CCN2CCC(=Cc3cccc(C(F)(F)F)c3)CC2)s1 [Compound L-29]
12.6	Cc1nc(-c2ccc(F)cc2)c(CCN2CCC(=Cc3ccc(F)cc3)CC2)s1 [Compound L-17]
1.96	Cc1nc(-c2ccc(F)cc2)c(CCN2CCC(=Cc3cccc(F)c3)CC2)s1 [Compound L-27]
22.1	Nc1nc(-c2ccc(Cl)cc2)c(CCN2CCC(=Cc3ccc(F)cc3)CC2)s1 [Compound L-03]
16.7	CC(=C1CCN(CCc2sc(C)nc2-c2ccc(F)cc2)CC1)c1ccc(F)cc1 [Compound L-31]
24.2	Nc1nc(-c2ccc(F)cc2)c(CCN2CCC(=Cc3cccc(C(F)(F)F)c3)CC2)s1 [Compound L-13]

Test system: not given
Experiment: not given
Settings: Summary and Clinical Data, Sandoz, Canada Inc. (1990); a case of death also reported; cited from earlier work

Compound	blood disorder
CN1CCN(C2=Nc3cc(Cl)ccc3Nc3ccccc32)CC1 [clozapine]	agranulocytosis

Same assay, conditions: clinical experiments, compared with dopamine D2 receptor antagonist; cited from earlier work

Compound	extrapyramidal disorder
CN1CCN(C2=Nc3cc(Cl)ccc3Nc3ccccc32)CC1 [clozapine]	less extrapyramidal disorder

From patent publication EP0816362A1, “THIAZOLE DERIVATIVES” (TAISHO PHARMACEUTICAL CO. LTD, priority 1995, dated 1996)
